Experimental data: US20210115494A1, “Improved method for measurement of microbial biomass” (Mycometer A/S, priority 2018, published 2021)

Key:
Assay type in all cases: biochemical
[1] = tested on: NAHA activity from Aureobasidium pullulans; experiment: NAHA activity assay, Aureobasidium pullulans
Description: (§1) In order to determine NAHA activity in different samples, the technology in WO 98/033934 was employed: A sample containing a dried or freeze dried organism is added to a buffer solution containing 4-Methylumbelliferyl N-acetyl-β-D-glucosaminide in a concentration of 20 μM. The reaction-time is varied depending on the ambient temperature and according to a reaction-time/temperature data sheet previously developed for fungal NAHA activity at various temperatures, and is 30 minutes at 23° C. The resulting fluorescence formed during the reaction time is monitored in a calibrated fluorometer.
(§2) Experiments were conducted where varying concentrations of AgNO3 was added to an analysis substrate. Furthermore, the experiments where performed on dried or freeze dried materials where both intact and fragmented cells are to be expected to be present.
(§3) Experiments analogous to those in example 1 were carried out, but instead of using non-specific inhibitors, the effect of different concentrations of DNJNAc on the NAHA activity in various biomass containing samples was investigated.

[2] = tested on: NAHA activity from Aspergillus fumigatus freeze dried; experiment: NAHA activity assay, Aspergillus fumigatus freeze dried; conditions: Aspergillus fumigatus (Freeze dried)
Description: as §1, §2, §3

[3] = tested on: NAHA activity from Chaetomium globosum; experiment: NAHA activity assay, Chaetomium globosum
Description: as §1, §3

[4] = tested on: NAHA activity from Acremonium spp.; experiment: NAHA activity assay, Acremonium spp.; conditions: Acremonium sp.
Description: as §1, §2, §3

[5] = tested on: NAHA activity from Fusarium culmorum; experiment: NAHA activity assay, Fusarium culmorum
Description: as §1, §2, §3

[6] = tested on: NAHA activity from Alternaria tenuissima; experiment: NAHA activity assay, Alternaria tenuissima
Description: as §1, §3

[7] = tested on: NAHA activity from Lepidoglyphus destructor (Storage mite); experiment: NAHA activity assay, storage mite; conditions: Lepidoglyphus destructor (Storage mite)
Description: as §1, §2, §3

[8] = tested on: NAHA activity from Mugworth pollen; experiment: NAHA activity assay, mugworth pollen
Description: as §1, §2, §3

[9] = tested on: NAHA activity from Rhizopus stolonifer; experiment: NAHA activity assay, Rhizopus stolonifer
Description: as §1, §3

[10] = tested on: NAHA activity from Trichoderma harzianum; experiment: NAHA activity assay, Trichoderma harzianum
Description: as §1, §3

[11] = tested on: NAHA activity from Aspergillus versicolor; experiment: NAHA activity assay, Aspergillus versicolor
Description: as §1, §3

[12] = tested on: NAHA activity from Mucor hiemalis; experiment: NAHA activity assay, Mucor hiemalis
Description: as §1, §2, §3

[13] = tested on: NAHA activity from Graham-flour; experiment: NAHA activity assay (4-methylumbelliferyl N-acetyl-β-D-glucosaminide, fluorescence), Graham-flour; conditions: Graham Hour
Description: as §1, §2, §3

[14] = tested on: NAHA activity from Ambrosia psilostachya (Rag weed pollen); experiment: NAHA activity assay, rag weed pollen
Description: as §1, §2, §3

[15] = tested on: NAHA activity from Aspergillus fumigatus; experiment: NAHA activity assay, Aspergillus fumigatus (Table 4b, state not given)
Description: as §1, §3

[16] = tested on: NAHA activity from Stachybotrys chartarum; experiment: NAHA activity assay, Stachybotrys chartarum
Description: as §1, §2, §3

[17] = tested on: NAHA activity from Penicillium crysogenum; experiment: NAHA activity assay, Penicillium crysogenum; conditions: Penicillium chrysogenum
Description: as §1, §2, §3

[18] = tested on: NAHA activity from Birch pollen; experiment: NAHA activity assay, birch pollen; conditions: Birch sollen
Description: as §1, §2, §3

[19] = tested on: NAHA activity from Human skin cells; experiment: NAHA activity assay, human skin cells
Description: as §1, §2, §3

[20] = tested on: NAHA activity from Cat dander; experiment: NAHA activity assay, cat dander
Description: as §1, §2, §3

[21] = tested on: NAHA activity from Cladosporium sphaerospermum; experiment: NAHA activity assay, Cladosporium sphaerospermum; conditions: Chladosporium sphaerosperm
Description: as §1, §2, §3

[22] = tested on: NAHA activity from Grass pollen; experiment: NAHA activity assay, grass pollen; conditions: Grass pollen
Description: as §1, §2, §3

Compound: CC(=O)N[C@H]1CN[C@H](CO)[C@@H](O)[C@@H]1O [DNJNAc, 2-Acetamido-1,2-dideoxynojirimycin]
- NAHA activity, 0 μM DNJNAc = 100% ([1]; DNJNAc 24.5 μM): 56%
- NAHA activity, 0 μM DNJNAc = 100% ([1]; DNJNAc 49 μM): 67%
- NAHA activity, 0 μM DNJNAc = 100% ([1]; DNJNAc 98 μM): 50%
- NAHA activity, 0 μM DNJNAc = 100% ([1]; DNJNAc 196 μM): 27%
- NAHA activity, 0 μM DNJNAc = 100% ([2]; DNJNAc 24.5 μM): 114%
- NAHA activity, 0 μM DNJNAc = 100% ([2]; DNJNAc 49 μM): 105%
- NAHA activity, 0 μM DNJNAc = 100% ([2]; DNJNAc 98 μM): 104%
- NAHA activity, 0 μM DNJNAc = 100% ([2]; DNJNAc 196 μM): 96%
- NAHA activity, 0 μM DNJNAc = 100% ([3]; DNJNAc 24.5 μM): 88%
- NAHA activity, 0 μM DNJNAc = 100% ([3]; DNJNAc 49 μM): 91%
- NAHA activity, 0 μM DNJNAc = 100% ([3]; DNJNAc 98 μM): 92%
- NAHA activity, 0 μM DNJNAc = 100% ([3]; DNJNAc 196 μM): 81%
- NAHA activity, 0 μM DNJNAc = 100% ([4]; DNJNAc 24.5 μM): 99%
- NAHA activity, 0 μM DNJNAc = 100% ([4]; DNJNAc 49 μM): 92%
- NAHA activity, 0 μM DNJNAc = 100% ([4]; DNJNAc 98 μM): 80%
- NAHA activity, 0 μM DNJNAc = 100% ([4]; DNJNAc 196 μM): 76%
- NAHA activity, 0 μM DNJNAc = 100% ([5]; DNJNAc 24.5 μM): 85%
- NAHA activity, 0 μM DNJNAc = 100% ([5]; DNJNAc 49 μM): 82%
- NAHA activity, 0 μM DNJNAc = 100% ([5]; DNJNAc 98 μM): 98%
- NAHA activity, 0 μM DNJNAc = 100% ([5]; DNJNAc 196 μM): 95%
- NAHA activity, 0 μM DNJNAc = 100% ([6]; DNJNAc 24.5 μM): 72%
- NAHA activity, 0 μM DNJNAc = 100% ([6]; DNJNAc 49 μM): 79%
- NAHA activity, 0 μM DNJNAc = 100% ([6]; DNJNAc 98 μM): 58%
- NAHA activity, 0 μM DNJNAc = 100% ([6]; DNJNAc 196 μM): 48%
- NAHA activity, 0 μM DNJNAc = 100% ([7]; DNJNAc 24.5 μM): 3%
- NAHA activity, 0 μM DNJNAc = 100% ([7]; DNJNAc 49 μM): 2%
- NAHA activity, 0 μM DNJNAc = 100% ([7]; DNJNAc 98 μM): 1%
- NAHA activity, 0 μM DNJNAc = 100% ([7]; DNJNAc 196 μM): 0%
- NAHA activity, 0 μM DNJNAc = 100% ([8]; DNJNAc 24.5 μM): 8%
- NAHA activity, 0 μM DNJNAc = 100% ([8]; DNJNAc 49 μM): 6%
- NAHA activity, 0 μM DNJNAc = 100% ([8]; DNJNAc 98 μM): 5%
- NAHA activity, 0 μM DNJNAc = 100% ([8]; DNJNAc 196 μM): 4%
- NAHA activity, 0 μM DNJNAc = 100% ([9]; DNJNAc 24.5 μM): 46%
- NAHA activity, 0 μM DNJNAc = 100% ([9]; DNJNAc 49 μM): 32%
- NAHA activity, 0 μM DNJNAc = 100% ([9]; DNJNAc 98 μM): 23%
- NAHA activity, 0 μM DNJNAc = 100% ([9]; DNJNAc 196 μM): 18%
- NAHA activity, 0 μM DNJNAc = 100% ([10]; DNJNAc 24.5 μM): 120%
- NAHA activity, 0 μM DNJNAc = 100% ([10]; DNJNAc 49 μM): 93%
- NAHA activity, 0 μM DNJNAc = 100% ([10]; DNJNAc 98 μM): 92%
- NAHA activity, 0 μM DNJNAc = 100% ([10]; DNJNAc 196 μM): 83%
- NAHA activity, 0 μM DNJNAc = 100% ([11]; DNJNAc 24.5 μM): 92%
- NAHA activity, 0 μM DNJNAc = 100% ([11]; DNJNAc 49 μM): 79%
- NAHA activity, 0 μM DNJNAc = 100% ([11]; DNJNAc 98 μM): 71%
- NAHA activity, 0 μM DNJNAc = 100% ([11]; DNJNAc 196 μM): 63%
- NAHA activity, 0 μM DNJNAc = 100% ([12]; DNJNAc 24.5 μM): 58%
- NAHA activity, 0 μM DNJNAc = 100% ([12]; DNJNAc 49 μM): 37%
- NAHA activity, 0 μM DNJNAc = 100% ([12]; DNJNAc 98 μM): 45%
- NAHA activity, 0 μM DNJNAc = 100% ([12]; DNJNAc 196 μM): 25%
- NAHA activity, 0 μM DNJNAc = 100% ([13]; DNJNAc 24.5 μM): 14%
- NAHA activity, 0 μM DNJNAc = 100% ([13]; DNJNAc 49 μM): 9%
- NAHA activity, 0 μM DNJNAc = 100% ([13]; DNJNAc 98 μM): 6%
- NAHA activity, 0 μM DNJNAc = 100% ([13]; DNJNAc 196 μM): 6%
- NAHA activity, 0 μM DNJNAc = 100% ([14]; DNJNAc 24.5 μM): 8%
- NAHA activity, 0 μM DNJNAc = 100% ([14]; DNJNAc 49 μM): 6%
- NAHA activity, 0 μM DNJNAc = 100% ([14]; DNJNAc 98 μM): 5%
- NAHA activity, 0 μM DNJNAc = 100% ([14]; DNJNAc 196 μM): 4%
- NAHA activity, 0 μM DNJNAc = 100% ([15]; DNJNAc 24.5 μM): 122%
- NAHA activity, 0 μM DNJNAc = 100% ([15]; DNJNAc 49 μM): 110%
- NAHA activity, 0 μM DNJNAc = 100% ([15]; DNJNAc 98 μM): 89%
- NAHA activity, 0 μM DNJNAc = 100% ([15]; DNJNAc 196 μM): 88%
- NAHA activity, 0 μM DNJNAc = 100% ([16]; DNJNAc 24.5 μM): 90%
- NAHA activity, 0 μM DNJNAc = 100% ([16]; DNJNAc 98 μM): 97%
- NAHA activity, 0 μM DNJNAc = 100% ([16]; DNJNAc 196 μM): 85%
- NAHA activity, 0 μM DNJNAc = 100% ([17]; DNJNAc 24.5 μM): 89%
- NAHA activity, 0 μM DNJNAc = 100% ([17]; DNJNAc 49 μM): 86%
- NAHA activity, 0 μM DNJNAc = 100% ([17]; DNJNAc 98 μM): 74%
- NAHA activity, 0 μM DNJNAc = 100% ([17]; DNJNAc 196 μM): 76%
- NAHA activity, 0 μM DNJNAc = 100% ([18]; DNJNAc 24.5 μM): 10%
- NAHA activity, 0 μM DNJNAc = 100% ([18]; DNJNAc 49 μM): 9%
- NAHA activity, 0 μM DNJNAc = 100% ([18]; DNJNAc 98 μM): 8%
- NAHA activity, 0 μM DNJNAc = 100% ([18]; DNJNAc 196 μM): 9%
- NAHA activity, 0 μM DNJNAc = 100% ([19]; DNJNAc 24.5 μM): 3%
- NAHA activity, 0 μM DNJNAc = 100% ([19]; DNJNAc 49 μM): 1%
- NAHA activity, 0 μM DNJNAc = 100% ([19]; DNJNAc 98 μM): 1%
- NAHA activity, 0 μM DNJNAc = 100% ([19]; DNJNAc 196 μM): 1%
- NAHA activity, 0 μM DNJNAc = 100% ([20]; DNJNAc 24.5 μM): 7%
- NAHA activity, 0 μM DNJNAc = 100% ([20]; DNJNAc 49 μM): 5%
- NAHA activity, 0 μM DNJNAc = 100% ([20]; DNJNAc 98 μM): 3%
- NAHA activity, 0 μM DNJNAc = 100% ([20]; DNJNAc 196 μM): 2%
- NAHA activity, 0 μM DNJNAc = 100% ([21]; DNJNAc 24.5 μM): 43%
- NAHA activity, 0 μM DNJNAc = 100% ([21]; DNJNAc 49 μM): 32%
- NAHA activity, 0 μM DNJNAc = 100% ([21]; DNJNAc 98 μM): 49%
- NAHA activity, 0 μM DNJNAc = 100% ([21]; DNJNAc 196 μM): 21%
- NAHA activity, 0 μM DNJNAc = 100% ([22]; DNJNAc 24.5 μM): 41%
- NAHA activity, 0 μM DNJNAc = 100% ([22]; DNJNAc 49 μM): 37%
- NAHA activity, 0 μM DNJNAc = 100% ([22]; DNJNAc 98 μM): 30%
- NAHA activity, 0 μM DNJNAc = 100% ([22]; DNJNAc 196 μM): 20%
